Columns and labels:
[1] = tested on: genetically defined cancer cells; assay: Target methyl mark inhibition and killing of cancer cells in vitro; assay type: cell-based
Oral bioavailability = assay type: in vivo
Animal models = assay: In vivo efficacy in animal models

## CCN(c1cc(-c2ccc(CN3CCOCC3)cc2)cc(C(=O)NCc2c(C)cc(C)[nH]c2=O)c1C)C1CCOCC1 [Compound 44]
[1]
  target methyl mark inhibition resulting in killing of cancer cells: killing of genetically defined cancer cells in vitro
Oral bioavailability
  oral bioavailability: orally bioavailable
Animal models
  in vivo efficacy following inhibition of target methyl mark: sustained in vivo efficacy

Reference: patent publication US11786533B2, “Use of EZH2 inhibitors for treating cancer” (Epizyme, Inc., priority 2016, dated 2023)
